Entries after “also recorded” stand apart in the source; their conditions may differ.
B1: SEQ ID NO:81: polyepitope protein of thirteen contiguous LMP1 and LMP2 CTL epitopes (protein)
chain: MPYLFWLAAISSCSSCPLSKITYGPVFMCLRRRWRRLTVLLSAWILTALTAGFLIFLCLGGLLTMVVMSNTLLSAWIEDPPFNSLYLLEMLWRLYLQQNWWTLALLVLYSFALIALYLQQNW

Key:
HLA A2 = HLA A2 (Homo sapiens, UniProt P04439, D140Y/D185E/D98H/E176V/E277Q/G131W/G231S/I119V/I121R/I166T/I218V/L300P/L318F/N151K/N90K/P208A/P217A/Q86G/Q94H/R138H/R169H/T345S); assay: MHC stabilisation assay on T2 cells; assay type: cell-based; set-up: endogenous in cells; host or cells: T2 (.174×CEM.T2), TAP-negative B×T hybrid cell line; settings: 14-16 h at 26° C. then 2-3 h at 37° C., FACS
Experimental: FIG. 7: A: CTL recognition of variant and prototypic BLA A2-restricted LMP1 epitope […]. PHA blasts were sensitized with serial dilutions of each of the peptides and then exposed to either the […]-specific CTL clone, SB7. B: MHC stabilization analysis on T2 cells using variant and prototypic HLA A2-restricted LMP1 epitope. T2 cells were initially incubated with 200 μl of each of the peptides (10 μg/ml) for 14-16 h at 26° C. followed by incubation at 37° C. for 2-3 h. HLA A2 expression on these cells was analysed by FACS using HLA A2-specific monoclonal antibody.
To assess MHC binding by the HLA A2-restricted LMP1 epitope variants from EBV isolates, T2 cells (2×10^5) were incubated with 200 μl of each of the peptides (100 μg/ml) at 26° C. for 14-16 h, followed by incubation at 37° C. for 2-3 h. After the incubations, HLA A2 expression was measured by FACS using a specific monoclonal antibody (HB82, ATCC).

[1] = system: peptide-sensitised PHA blasts and LCLs; assay: 51Cr-release cytotoxicity assay with peptide-specific CTL lines and clones; assay type: cell-based, human; settings: serial dilutions of peptide, compared with wild-type YLLEMLWRL, CTL clone SB7
Experimental: Polyclonal CTL lines and LMP1-specific CTL clones were established according to previously published methods (Moss 1988; Khanna 1998). Briefly, 2×10^6 PBMCs were stimulated with 1×10^6 autologous lymphocytes (responder to stimulator ratio of 2:1) pulsed with 10 μM peptide for 1 hr in 2 ml in a 24-well plate. After 3 days, culture medium with IL-2 (10 U/ml) was added and the cells were further expanded. These lymphocytes were restimulated on day 7 with γ-irradiated (8000 rad) autologous LCLs. After 10 days in culture medium, the cells were used as polyclonal effectors in a standard ^51Cr-release assay against peptide-sensitised autologous PHA blasts.
To generate peripheral blood CTL clones specific for the LMP1 derived peptides, PBMCs of healthy donors were reactivated (2×10^6) PBMCs with peptide-sensitised (10 ug of peptide/ml) autologous lymphocytes (1×10^6) in 2 ml wells of a 24-well plate in culture medium. After 3 days, the cells were seeded onto 0.35% agarose and maintained in T cell growth medium containing rIL2 (50 IU/ml). After another 3 days, growing clones were transferred to 96-well round-bottom tissue culture plates (Life Technologies) and cultured in T cell growth medium containing rIL2 (50-100 IU/ml).
Target cells were pre-sensitized with synthetic peptide epitopes and then incubated with ^51Cr for 90 min. Following incubation, these cells were washed in growth medium and used as targets in a standard 5 h ^51Cr-release assay (Moss, 1988)
To further characterize the minimal T cell epitopes defined by ELISPOT assays we generated polyclonal and clonal CTL lines specific for these epitopes. PBMCs from the healthy seropositive donors were stimulated with synthetic peptide epitopes and the CTL clones or polyclonal lines were established and tested in standard ^51Cr-release assays. The […] peptide-specific CTL clones were generated using initial stimulation with peptide-sensitized autologous PBMC followed by continuous restimulation with irradiated autologous LCL. These CTL clones were screened for […]-specific CTL activity by ^51Cr release assays against peptide-sensitised autologous and allogeneic PHA blast and LCLs. […] Titration of this minimal epitope on autologous PHA blasts further confirmed the fine specificity of this CTL clone (FIG. 5B).

CD8+ CTL = assay: Immunization of HLA A2/K^b transgenic mice, epitope-specific T cell responses; settings: mouse, in vivo
Description: HLA A2/K^b transgenic mice used in this study have been described elsewhere (Theobald 1997). These mice express a chimeric class I molecule composed of the alpha 1 & 2 domains of the human A*0201 allele and the alpha 3 domains of the mouse H-2K^b class I molecules. These mice were vaccinated intraperitoneally with 10^8 plaque forming units of recombinant Ad5-LMPpoly or a control adenovirus. After 3 weeks, splenocytes were harvested and tested for epitope-specific T cell responses. These T cell responses were assessed using ELISPOT and in vivo CTL assays as herein described.

| Molecule | HLA A2 expression on T2 cells (HLA A2 binding) (HLA A2) | sensitizing autologous PHA blast to lysis by YLLEMLWRL-specific CTL clone [1] | CD8+ CTL responses in polyepitope-immunized mice (CD8+ CTL) |
| --- | --- | --- | --- |
| YFLEILWRL [variant of […] dominant in South-East Asian EBV isolates] | unable to rescue HLA A2 expression; also recorded: significant loss in HLA A2 binding | poorly recognized |  |
| YLLEILWRL | significantly increased MHC expression on T2 cells | recognized as efficiently as the wild-type epitope |  |
| B1 |  |  | induce CD8+CTL responses |
